Key:
Assay type in all cases: cell-based, Staphylococcus aureus
MRSA USA-300 = assay: AAMP assay and checkerboard synergy; details: MRSA USA-300
Protocol: (§1) Antimicrobial activity was measured using the AAMP assay (Wiegand et al., 2008, Nat. Protoc., Vol. 3(2), p 163-175).
(§2) Synergy testing was done with a microtiter plate checkerboard assay as previously described (Orhan et al., 2005, J. Clin. Microbiol., Vol. 43(1), p 140-143). Briefly, equal amounts of antimicrobial A were applied on microtiter plate 1 in wells A1-H1 and then diluted two-fold to wells 2-12. Similarly, equal amounts of antimicrobial B were applied on microtiter plate 2 in wells A1-A12 and diluted two-fold in wells B-H. Volumes of 50 μl of antimicrobial A from each well of microtiter plate 1 were transferred into microtiter plate 3, except for wells H1-H12. Similarly, the same volumes were transferred from microtiter plate 2 into plate 3, except for wells A1-A8. A 100 μl volume of 25 times diluted ON bacterial culture of MRSA was transferred into each well of plate 3. A 50 μl volume of pure broth was added into each well in lines H1-H12 and A1-A8 which were used to estimate MIC values of pure substances (blank).
(§3) Three-component synergy was assessed by mixing the three components (100 μg of PenG, 50 μg of GarKS and 2.5 μg of MP1) into one well of a microtiter plate, compared with activity of individual antimicrobials on the same plate. The fractional inhibition concentration (FIC) which was used to define synergy was calculated as set forth in Example 1.

MRSA ATCC 33591-lux = assay: AAMP assay and checkerboard synergy; details: MRSA ATCC 33591-lux
Protocol: as §1, §2, §3

MRSA 43484 = assay: AAMP assay and checkerboard synergy; details: MRSA 43484
Protocol: as §1, §2, §3

S. aureus LMG3264 = assay: AAMP assay (MIC), single components and formulation mixture; details: Staphylococcus aureus, LMG3264, 24 h; read-out: MIC, single component
Protocol: as §1, §3

S. aureus LMG3255 = assay: as above; details: Staphylococcus aureus, LMG3255, 24 h; read-out: MIC, single component
Protocol: as §1, §3

S. aureus LMG3242 = assay: as above; details: Staphylococcus aureus, LMG3242, 24 h; read-out: MIC, single component
Protocol: as §1, §3

S. aureus LMG3271 = assay: as above; details: Staphylococcus aureus, LMG3271, 24 h; read-out: MIC, single component
Protocol: as §1, §3

MRSA = assay: MIC of the mixture dissolved in 5% HPC; details: Staphylococcus aureus, MRSA, read-out: final MIC of the component in the mixture in HPC
Protocol: as §1
We also tested hydroxypropyl cellulose (HPC) which is a more hydrophilic polymer and commonly used for topical and oral pharmaceutical preparations (Alvarez-Lorenzo et al., 1999, Int. J. Pharmaceutics, Vol. 180(1), p 91-103).

S. aureus USA 300 = assay: Planktonic cell growth inhibition assay (MIC50, liquid culture)
Protocol: (§4) Growth inhibition assays were performed in 96-well microtiter plates as described previously (Chi and Holo, 2018, supra). Briefly, 135 μl of TSB were dispensed in each well of a microtiter plate (according to the number of bacterial strains tested) except in the wells of the first row. The antimicrobials were diluted in TSB to working concentrations in a final volume of 285 μl and dispensed in the wells of the first row. The working concentrations were 100 μg/μl for garvicin KS, 10 μg/μl for micrococcin P1 and 1 mg/ml for penicillin G. From the first row, 150 μl of the antimicrobials were then serially diluted (two-fold dilutions) in a sequential fashion until the last row of the plate. Finally, 15 μl of a fresh O/N culture of each strain were added in the appropriate wells to reach a final volume of 150 μl in each well. The plates were then incubated at 37° C. for 24 h. The growth inhibition was expressed as minimum inhibitory concentration (MIC50), which refers to the minimum concentration of the antimicrobial needed to reduce at least 50% of the microbial growth compared to the untreated control. The MIC50 was assessed by optical density readings at 600 nm (O.D.600).
(§5) Synergistic interactions between antimicrobials were determined using the fractional inhibition concentration (FIC). The FIC values were calculated as follows: the sum of the FIC =FICa+FICb+FICc, where the FICa means MIC of A in combination/MIC of A alone, FICb means MIC of B in combination/MIC of B, and FICc means MIC of C in combination/MIC of C alone. Effects were considered as synergistic if FIC was ≤0.5 for two components mixture and ≤0.75 for three components mixture.

S.a. 3255 = assay: as above
Protocol: as §4, §5

S. aureus ATTC 33591 = assay: as above
Protocol: as §4, §5

S. aureus ATTC 10832 = assay: as above
Protocol: as §4, §5

S. aureus Newman = assay: as above
Protocol: as §4, §5

S. aureus ATTC 29213 = assay: as above
Protocol: as §4, §5

[1] = Staphylococcus aureus, 24 h, read-out: MIC, single antimicrobial
[2] = garvicin KS + micrococcin P1 + penicillin G
[3] = Staphylococcus aureus, individual component, read-out: MIC50

CC1(C)S[C@@H]2[C@H](NC(=O)Cc3ccccc3)C(=O)N2[C@H]1C(=O)O [Penicillin G]
MIC of GarKS in comb. antibiotic/GarKS/MP1 (MRSA USA-300): 4 µg/mL | MIC of MP1 in comb. antibiotic/GarKS/MP1 (MRSA USA-300): 0.08 µg/mL | MIC of MP1 in comb. with the labelled antibiotic (MRSA USA-300): 0.3 µg/mL | MIC of the antibiotic in comb. with GarKS and MP1 (MRSA USA-300): 8 µg/mL | MIC of the antibiotic in comb. with MP1 (MRSA USA-300): 32 µg/mL | MIC of the antimicrobial in comb. with GarKS (MRSA USA-300): 16 µg/mL | MIC (MRSA USA-300; [1]): < 2500 µg/mL | MIC of GarKS in comb. antibiotic/GarKS/MP1 (MRSA ATCC 33591-lux): 4 µg/mL | MIC of MP1 in comb. antibiotic/GarKS/MP1 (MRSA ATCC 33591-lux): 0.08 µg/mL | MIC of MP1 in comb. with the labelled antibiotic (MRSA ATCC 33591-lux): 0.16 µg/mL | MIC of the antibiotic in comb. with GarKS and MP1 (MRSA ATCC 33591-lux): 8 µg/mL | MIC of the antibiotic in comb. with MP1 (MRSA ATCC 33591-lux): 16 µg/mL | MIC of the antimicrobial in comb. with GarKS (MRSA ATCC 33591-lux): 16 µg/mL | MIC (MRSA ATCC 33591-lux; [1]): < 2500 µg/mL | MIC of GarKS in comb. antibiotic/GarKS/MP1 (MRSA 43484): 4 µg/mL | MIC of MP1 in comb. antibiotic/GarKS/MP1 (MRSA 43484): 0.08 µg/mL | MIC of MP1 in comb. with the labelled antibiotic (MRSA 43484): 0.3 µg/mL | MIC of the antibiotic in comb. with GarKS and MP1 (MRSA 43484): 8 µg/mL | MIC of the antibiotic in comb. with MP1 (MRSA 43484): 32 µg/mL | MIC of the antimicrobial in comb. with GarKS (MRSA 43484): 16 µg/mL | MIC (MRSA 43484; [1]): < 2500 µg/mL | MIC (S. aureus LMG3264): 4 µg/mL | MIC (S. aureus LMG3255): < 0.24 µg/mL | MIC (S. aureus LMG3242): 0.24 µg/mL | MIC (S. aureus LMG3271): < 0.24 µg/mL | MIC (MRSA): 2 µg/mL | MIC50 (S. aureus USA 300; Staphylococcus aureus, USA300, individual component, read-out: MIC50): > 1000 µg/mL | MIC50 of the component in combination (S. aureus USA 300; [2]): 0.063 mg/mL | MIC50 of the component in combination (S. aureus USA 300; garvicin KS + penicillin G): 0.25 mg/mL | MIC50 (S.a. 3255; [3]): < 7.8 µg/mL | MIC50 of the component in combination (S.a. 3255; [2]): <7.8 µg/mL | MIC50 of the component in combination (S.a. 3255; garvicin KS + penicillin G): <7.8 µg/mL | MIC50 (S. aureus ATTC 33591; Staphylococcus aureus, ATTC33591, individual component, read-out: MIC50): > 1000 µg/mL | MIC50 of the component in combination (S. aureus ATTC 33591; [2]): 0.13 mg/mL | MIC50 of the component in combination (S. aureus ATTC 33591; garvicin KS + penicillin G): 0.5 mg/mL | MIC50 (S. aureus ATTC 10832; Staphylococcus aureus, ATTC10832, individual component, read-out: MIC50): < 7.8 µg/mL | MIC50 of the component in combination (S. aureus ATTC 10832; [2]): <7.8 µg/mL | MIC50 of the component in combination (S. aureus ATTC 10832; garvicin KS + penicillin G): <7.8 µg/mL | MIC50 (S. aureus Newman; [3]): < 7.8 µg/mL | MIC50 of the component in combination (S. aureus Newman; [2]): <7.8 µg/mL | MIC50 of the component in combination (S. aureus Newman; garvicin KS + penicillin G): <7.8 µg/mL | MIC50 (S. aureus ATTC 29213; Staphylococcus aureus, ATTC29213, individual component, read-out: MIC50): 130 µg/mL | MIC50 of the component in combination (S. aureus ATTC 29213; [2]): 0.031 mg/mL | MIC50 of the component in combination (S. aureus ATTC 29213; garvicin KS + penicillin G): 0.13 mg/mL

From patent US20240041976A1, “COMPOSITION AND USE” (priority 2020, published 2024)
